Like-named read-outs stand apart in the source and are kept apart here.
Legend:
[1] = system: vanA-positive Enterococcus faecium clinical isolate vanA2; assay: MIC of vancomycin by serial dilution in 96-well plates with or without D-Ala; format: cell-based; conditions: for MIC: Enterococcus faecium
Procedure: (§1) Having established the important role of D-Ala in enhancing the efficacy of vancomycin against vancomycin-resistant S. coelicolor cells, next, its effect on the resistance of clinical isolates of Enterococcus faecium, which were vanA-positive strains, was assessed. MIC values were calculated by testing a serial dilution of vancomycin in the presence or absence of D-Ala in triplicate (Table 3).
(§2) The MIC was determined by measurement of the OD600 or by visual assessment, following the Clinical Laboratory and Standards Institute (CLSI) guidelines. […] This value compares to intermediate instead of total resistance. The strains were serially diluted in a 96-well plate and growth was assayed at OD600. The steps down refer to CSLI guidelines for clinical MIC measurements.
(§3) Five vanA-positive Enterococcus faecium strains were collected in 2011 and 2014 from patients in the Erasmus University Medical Centre, Rotterdam, The Netherlands. Presence of the vanA gene was confirmed by real-time PCR with the LIGHTCYCLER® 480 instrument (Roche Diagnostics, Almere, The Netherlands) with the primers vanA F1 and vanA R1, and the vanA probe. The resistance profile of these isolates was determined as MIC values using the VITEK II (BioMerieux) system AST-P586. To determine the MIC of vancomycin against E. faecium, cells were grown overnight on Trypticase Soy Agar (TSA) blood agar plates (Becton Dickinson, Breda, The Netherlands) and suspended in 0.9% NaCl until OD600 0.5 (±0.05). Of this suspension, 10 μl was dispensed into wells of sterile flat-bottom 96-well polystyrene tissue culture plates (Greiner Bio-One, Alphen aan Den Rijn, The Netherlands) containing serial dilutions of vancomycin in 190 μl of a 1:1 mixture of Fetal Bovine Serum (FBS) (Gibco, Bleiswijk, The Netherlands) and Iscove's Modified Dulbecco's Medium (IMDM) (without phenolred, Gibco, Bleiswijk, The Netherlands), and in the presence or absence of 50 mM D-alanine (Alfa Aesar, Ward Hill, Mass., USA). Plates were incubated for 18-24 hours at 37° C. and MIC values determined visually following the CLSI guidelines, or by spectrophotometer at 600 nm.

[2] = system: vanA-positive Enterococcus faecium clinical isolate vanA1; assay: as above; format: cell-based; conditions: for MIC: Enterococcus faecium
Procedure: as §1, §2, §3

[3] = system: vanA-positive Enterococcus faecium clinical isolate vanA3; assay: as above; format: cell-based; conditions: for MIC: Enterococcus faecium
Procedure: as §1, §2, §3

[4] = system: vanA-positive Enterococcus faecium clinical isolate vanA4; assay: as above; format: cell-based; conditions: for MIC: Enterococcus faecium
Procedure: as §1, §2, §3

S. coelicolor M145 = assay: LC-MS analysis of peptidoglycan precursors; format: cell-based, Streptomyces coelicolor; conditions: M145 grown with 10 μg/ml vancomycin
Procedure: (§4) In order to get more insights into the synthesis of vancomycin-sensitive (i.e., wild-type) or the alternate vancomycin-resistant peptidoglycan, the pool of peptidoglycan precursors was analyzed by Liquid Chromatography coupled to Mass Spectrometry (LC-MS). When cells produce wild-type PG, only the MurNac-pentapeptide with a D-Ala-D-Ala terminus are detected, while vancomycin-resistant PG precursors have a D-Ala-D-Lac terminus. To analyze the precursors produced in S. coelicolor M145 and its mutant derivatives LAG1 (Δddl) and LAG2 (Δddl vanS::IS466A) in the presence or absence of vancomycin, the strains were grown until exponential phase, after which the cultures were harvested, washed and the precursors extracted with 5% TCA. The supernatants were desalted, concentrated and analyzed by LC-MS (see Materials and Methods section).
(§5) For the precursor isolation and identification, a modification of the method described previously by Hong and colleagues (Hong et al., 2004) was used. 10 μg vancomycin was added to the strains at the moment of inoculation. The strains were grown in NMMP (1% (w/v) Mannitol, 50 mM MgCl2) until mid-log phase (OD-0.3-0.4) and mycelia were harvested by centrifugation at 4° C. and washed in 0.9% NaCl. […] The elution was monitored at 254 nm and monitored by the sizes eluted (1193.8-1195.3).

[5] = system: S. coelicolor LAG1 (ddl null mutant); assay: LC-MS analysis of peptidoglycan precursors; format: cell-based, Streptomyces coelicolor; conditions: LAG1 grown in the presence of vancomycin
Procedure: as §4, §5

S. coelicolor LAG2 = assay: LC-MS analysis of peptidoglycan precursors, including time course after alanine addition; format: cell-based, Streptomyces coelicolor
Procedure: as §4
To investigate what the effect would be of the addition of excess of D-Ala on the accumulation of wild-type precursors, a time-course experiment was performed to follow the effect of D-Ala addition on the ratio between wild-type and resistant precursors. Therefore, 300 ml liquid-grown NMMP cultures were supplemented with either D-Ala or L-Ala (control) at 50 mM end concentration, and 10 ml samples were collected prior to and 1, 5, 15, 30, 60, 120 and 180 minutes after the addition of either alanine stereoisomer. Samples were immediately filtered by vacuum filtration, washed in 0.9% NaCl, biomass scraped off the filter, added to a tube containing 5% TCA and samples prepared as described above. […] However, addition of 50 mM D-Ala triggered the production of small amounts of wt precursor (1%) within 1 minute. After 15 minutes, this amount had increased to 4%, which appeared to be close to the maximum, with levels of wt precursors never exceeding 5%.
For the precursor isolation and identification, a modification of the method described previously by Hong and colleagues (Hong et al., 2004) was used. 10 μg vancomycin was added to the strains at the moment of inoculation. The strains were grown in NMMP (1% (w/v) Mannitol, 50 mM MgCl2) until mid-log phase (OD-0.3-0.4) and mycelia were harvested by centrifugation at 4° C. and washed in 0.9% NaCl. The mycelium was extracted with 5% cold trichloric acid (TCA) for 30 minutes at 4° C. This was centrifuged and the supernatant desalted on a Sephadex G-25 column (Illustra NAP-10 Columns, GE Healthcare, Pittsburgh), and concentrated by rotary evaporation. The concentrated precursors were dissolved in HPLC-grade water and separated by LC-MS using a gradient of 0-20% acetonitrile in water with 0.1% TFA. The elution was monitored at 254 nm and monitored by the sizes eluted (1193.8-1195.3).
For the measurement over time, the protocol was adjusted in the following way: 300 ml NMMP cultures were grown until exponential phase, at which point a 10 ml sample was taken (sample t=0) and 50 mM of D-Ala or L-Ala was added, followed by further sampling after 1, 5, 15, 30, 60, 120 and 180 minutes. Samples were rapidly filtered with a vacuum pump and washed with 0.9% (w/v) NaCl, mycelia scraped off the filter and transferred to 5% TCA.

## CN[C@H](CC(C)C)C(=O)N[C@H]1C(=O)N[C@@H](CC(N)=O)C(=O)N[C@H]2C(=O)N[C@H]3C(=O)N[C@H](C(=O)N[C@H](C(=O)O)c4cc(O)cc(O)c4-c4cc3ccc4O)[C@H](O)c3ccc(c(Cl)c3)Oc3cc2cc(c3O[C@@H]2O[C@H](CO)[C@@H](O)[C@H](O)[C@H]2O[C@H]2C[C@](C)(N)[C@H](O)[C@H](C)O2)Oc2ccc(cc2Cl)[C@H]1O [vancomycin]
[1]; vanA2, 50 mM D-Ala, read-out: MIC with 50 mM D-Ala
  MIC: 256 µg/mL
[1]; vanA2, read-out: MIC without D-Ala
  MIC: 4100 µg/mL
[1]; vanA2, 50 mM D-Ala, approximation based on 2-fold dilution steps
  reduction of MIC: ~16
[2]; vanA1, 50 mM D-Ala, read-out: MIC with 50 mM D-Ala
  MIC: 256 µg/mL
[2]; vanA1, read-out: MIC without D-Ala
  MIC: 4100 µg/mL
[2]; vanA1, 50 mM D-Ala, approximation based on 2-fold dilution steps
  reduction of MIC: ~16
[3]; vanA3, 50 mM D-Ala, read-out: MIC with 50 mM D-Ala
  MIC: 128 µg/mL
[3]; vanA3, read-out: MIC without D-Ala
  MIC: 4100 µg/mL
[3]; vanA3, 50 mM D-Ala, approximation based on 2-fold dilution steps
  reduction of MIC: ~32
[4]; vanA4, 50 mM D-Ala, read-out: MIC with 50 mM D-Ala
  MIC: 128 µg/mL
[4]; vanA4, read-out: MIC without D-Ala
  MIC: 4100 µg/mL
[4]; vanA4, 50 mM D-Ala, approximation based on 2-fold dilution steps
  reduction of MIC: ~32
S. coelicolor M145
  precursors of the vancomycin-insensitive variant (D-Ala-D-Lac): 91.5%
[5]
  precursors containing the terminal D-Ala-D-Lac dipeptide: 95.7%
S. coelicolor LAG2; LAG2 grown with vancomycin
  precursors terminated with D-Ala-D-Lac: 99.8%
S. coelicolor LAG2; LAG2 with vancomycin (FIG. 3B)
  wild-type (vancomycin-sensitive) peptidoglycan: less than 1%

— US20190000789A1, “COMPOSITION AND METHOD FOR TREATING INFECTIONS CAUSED BY VANCOMYCIN-RESISTANT INFECTIOUS AGENTS IN A SUBJECT” (priority 2015, published 2019)
